In the supplement of paper PMC10307832:

Experiments:
Experiment in all cases: relative viability (nuclei count vs DMSO), 5 days (fraction); higher = more cells survive
Pemetrexed + Foretinib = compound: Nc1nc2[nH]cc(CCc3ccc(C(=O)N[C@@H](CCC(=O)O)C(=O)O)cc3)c2c(=O)[nH]1 [Pemetrexed] + COc1cc2c(Oc3ccc(NC(=O)C4(C(=O)Nc5ccc(F)cc5)CC4)cc3F)ccnc2cc1OCCCN1CCOCC1 [Foretinib] (partner 0.25 µM)
Procedure, shortened: (§1)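 Values are medians from duplicate plates. Each reflects relative viability, defined as the nuclei count of treated wells over that of vehicle wells. Lung cancer cell lines in 1536-well plates were pin-tool dosed one day after seeding with one drug alone or with a fixed anchor-drug dose plus five library-drug doses (not always all listed) in √10 steps, then fixed, stained and imaged at 4× after 5 days.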

Pemetrexed + Dasatinib = compound: Nc1nc2[nH]cc(CCc3ccc(C(=O)N[C@@H](CCC(=O)O)C(=O)O)cc3)c2c(=O)[nH]1 [Pemetrexed] + Cc1nc(Nc2ncc(C(=O)Nc3c(C)cccc3Cl)s2)cc(N2CCN(CCO)CC2)n1 [Dasatinib] (partner 0.075 µM)
Procedure, shortened: as §1

Idelalisib + AZD7762 = compound: CC[C@H](Nc1ncnc2[nH]cnc12)c1nc2cccc(F)c2c(=O)n1-c1ccccc1 [Idelalisib] + NC(=O)Nc1cc(-c2cccc(F)c2)sc1C(=O)N[C@H]1CCCNC1 [AZD7762] (partner 0.2 µM)
Procedure, shortened: as §1

Idelalisib + Luminespib = compound: CC[C@H](Nc1ncnc2[nH]cnc12)c1nc2cccc(F)c2c(=O)n1-c1ccccc1 [Idelalisib] + CCNC(=O)c1noc(-c2cc(C(C)C)c(O)cc2O)c1-c1ccc(CN2CCOCC2)cc1 [Luminespib] (partner 0.01 µM)
Procedure, shortened: as §1

Cell Line	relative viability (Pemetrexed + Foretinib; first compound 0.002 µM)	relative viability (Pemetrexed + Foretinib; first compound 0.006325 µM)	relative viability (Pemetrexed + Foretinib; first compound 0.02 µM)	relative viability (Pemetrexed + Foretinib; first compound 0.06325 µM)	relative viability (Pemetrexed + Foretinib; first compound 0.2 µM)	relative viability (Pemetrexed + Dasatinib; first compound 0.002 µM)	relative viability (Pemetrexed + Dasatinib; first compound 0.006325 µM)	relative viability (Pemetrexed + Dasatinib; first compound 0.02 µM)	relative viability (Pemetrexed + Dasatinib; first compound 0.06325 µM)	relative viability (Pemetrexed + Dasatinib; first compound 0.2 µM)	relative viability (Idelalisib + AZD7762; first compound 0.04 µM)	relative viability (Idelalisib + AZD7762; first compound 0.1265 µM)	relative viability (Idelalisib + AZD7762; first compound 0.4 µM)	relative viability (Idelalisib + AZD7762; first compound 1.265 µM)	relative viability (Idelalisib + AZD7762; first compound 4 µM)	relative viability (Idelalisib + Luminespib; first compound 0.04 µM)	relative viability (Idelalisib + Luminespib; first compound 0.1265 µM)	relative viability (Idelalisib + Luminespib; first compound 0.4 µM)	relative viability (Idelalisib + Luminespib; first compound 1.265 µM)	relative viability (Idelalisib + Luminespib; first compound 4 µM)
NCI-H2347	0.841	1.06	1.19	0.739	0.558	0.269	0.169	0.351	0.319	0.272	0.699	0.925	0.69	0.466	0.478	0.506	0.581	0.448	0.362	0.532
NCI-H2405	1.06	1.03	1.09	1.03	1.08	0.182	0.228	0.228	0.205	0.209	0.821	0.779	0.534	0.601	0.705	0.777	0.621	0.473	0.52	0.442
NCI-H3122	0.931	0.972	0.973	0.973	0.72	0.707	0.815	0.659	0.674	0.463	0.949	1.01	1.01	0.785	0.998	0.0784	0.0938	0.115	0.0796	0.0833
PC-3 [JPC-3]	0.93	1.05	1.02	1.05	1.01	0.845	0.988	1.03	0.983	0.941	0.916	0.889	0.806	0.707	0.569	0.487	0.65	0.69	0.65	0.497
PC-14	0.894	0.927	1	0.611	0.258	0.249	0.242	0.316	0.0953	0.0482	0.313	0.446	0.334	0.265	0.301	0.158	0.136	0.127	0.154	0.123
RERF-LC-KJ	0.84	0.84	0.866	0.857	0.749	0.767	0.881	0.856	0.849	0.382	1.05	0.947	0.924	1.06	0.783	1.31	1.33	1.12	1.19	1.07
SW 900	0.908	0.77	0.874	0.688	0.588	0.637	0.602	0.657	0.449	0.477	0.569	0.609	0.416	0.3	0.463	0.21	0.193	0.152	0.183	0.165
